# Test system: ICR mice
# Assay: Acute toxicity test
# Assay type: in vivo
# Settings: 300 mg/kg subcutaneous, male ICR mice, 5 animals, observation for 24 hours
# Method: A mixture (saline:polyethylene glycol 400:ethanol =5:4:1) was added to a test compound to prepare 30 mg/mL solution. As experimental animals, 5 week old male ICR mice (CLEA JAPAN, INC. 29–35 g, 5 animals in each group), which were fasted for 4 hours, were used. The above solution was subcutaneously administered at a dose of 10 mL/kg (300 mg/kg) to the above experimental animals and then observation for 24 hours was performed.
smiles,measurement,value
"COc1ccc(Cc2c(C)cc(C)cc2O[C@@H]2O[C@H](CO)[C@@H](O)[C@H](O)[C@H]2O)cc1 [Example 37, 2-(4-Methoxybenzyl)-3,5-dimethylphenyl β-D-glucopyranoside]",Death number,0/5
